# Data: patent US20210321649A1, “METHOD FOR DETECTING MISHANDLING AND MISUSE OF FOOD PRODUCTS” (SECURITY MATTERS LTD., priority 2016, published 2021)
# Assay: Solubility of marking compounds in ethanol and water (Table 1)
# Conditions: for Solubility in Ethanol: solvent ethanol; for Solubility in water: solvent water
Substance,Solubility in Ethanol,Solubility in water
Vitamin B12,Soluble,Soluble
Copper complexes chlorophylls [Copper complexes chlorophylls (E141)],Soluble,Insoluble
